Laboratory results taken from ChEMBL document CHEMBL4043270, “Design, synthesis and biological evaluation of 2-phenylquinoline-4-carboxamide derivatives as a new class of tubulin polymerization inhibitors” (Bioorg Med Chem, 2017).
Calls of active or inactive are those of the source. The calls are words filed in the database; no cut-off is given here.

Assays:
[1] = system: MDA-MB-468; assay: Antiproliferative activity against human MDA-MB-468 cells by SRB assay; assay type: functional, cell-based
[2] = system: MRC5; assay: Antiproliferative activity against human MRC5 cells by SRB assay; assay type: cell-based
[3] = system: A549; assay: Antiproliferative activity against human A549 cells by SRB assay; assay type: functional, cell-based
[4] = system: SK-OV-3; assay: Antiproliferative activity against human SKOV3 cells by SRB assay; assay type: functional, cell-based
[5] = system: HCT-116; assay: Antiproliferative activity against human HCT116 cells by SRB assay; assay type: functional, cell-based
[6] = system: HeLa; assay: Antiproliferative activity against human HeLa cells by SRB assay; assay type: functional, cell-based
[7] = system: HCT-116; assay: Induction of Cyclin B1 accumulation in human HCT116 cells at 0.06 to 1 uM after 24 hrs by Western blot method; assay type: functional, cell-based
[8] = system: HCT-116; assay: Cell cycle arrest in human HCT116 cells assessed as accumulation at G2/M phase at 500 nM after 48 hrs by […]propidium iodide staining based flow cytometry (reference value: 1.62%); assay type: functional
[9] = species: Bos taurus; assay: Inhibition of bovine tubulin polymerization at 125 to 725 nM measured every 60 secs intervals for 60 mins in presence of GTP by fluorescence assay
[10] = system: HCT-116; assay: Induction of apoptosis in human HCT116 cells assessed as early apoptotic cells at 0.5 uM after 24 hrs by annexin-V FITC/propidium iodide staining based flow cytometry (reference value: 1.08%); assay type: functional
[11] = system: HCT-116; assay: Cell cycle arrest in human HCT116 cells assessed as accumulation at G1 phase at 125 nM after 48 hrs by […]propidium iodide staining based flow cytometry (reference value: 89.45%); assay type: functional
[12] = system: HCT-116; assay: Induction of apoptosis in human HCT116 cells assessed as late apoptotic cells at 0.5 uM after 24 hrs by annexin-V FITC/propidium iodide staining based flow cytometry (reference value: 0.96%); assay type: functional
[13] = system: HCT-116; assay: Cell cycle arrest in human HCT116 cells assessed as accumulation at G2/M phase at 125 nM after 48 hrs by […]propidium iodide staining based flow cytometry (reference value: 1.62%); assay type: functional
[14] = system: HCT-116; assay: Induction of apoptosis in human HCT116 cells assessed as necrotic cells at 0.5 uM after 24 hrs by annexin-V FITC/propidium iodide staining based flow cytometry (reference value: 0.03%); assay type: functional
[15] = system: HCT-116; assay: Cell cycle arrest in human HCT116 cells assessed as accumulation at S phase at 500 nM after 48 hrs by […]propidium iodide staining based flow cytometry (reference value: 8.93%); assay type: functional
[16] = system: HCT-116; assay: Cell cycle arrest in human HCT116 cells assessed as accumulation at S phase at 125 nM after 48 hrs by […]propidium iodide staining based flow cytometry (reference value: 8.93%); assay type: functional
[17] = system: HCT-116; assay: Induction of apoptosis in human HCT116 cells assessed as viable cells at 0.5 uM after 24 hrs by annexin-V FITC/propidium iodide staining based flow cytometry (reference value: 97.93%); assay type: functional; details: HCT-116, 24 h, read-out: Activity
[18] = system: HCT-116; assay: Cell cycle arrest in human HCT116 cells assessed as accumulation at G1 phase at 500 nM after 48 hrs by […]propidium iodide staining based flow cytometry (reference value: 89.45%); assay type: functional
[19] = species: Homo sapiens; assay: Displacement of colchicine from tubulin (unknown origin) at 0.1 to 10 uM after 1 hr by fluorescence assay
[20] = system: HCT-116; assay: Induction of microtubule disruption in human HCT116 cells assessed as change in microtubule architecture at 0.5 uM after 24 hrs by DAPI staining based confocal microscopic method; assay type: functional, cell-based

| SMILES | IC50 [1] | IC50 [3] | IC50 [4] | IC50 [5] | IC50 [6] | IC50 [2] | also measured |
| --- | --- | --- | --- | --- | --- | --- | --- |
| C=CCNC(=S)NC(=O)c1cc(-c2ccccc2)nc2ccccc12 | > 50 µM | > 50 µM | > 50 µM | > 50 µM | > 50 µM | > 50 µM |  |
| COC(=O)C1=C(NC(=O)c2cc(-c3ccccc3)nc3ccccc23)NC=CN1 | > 50 µM | > 50 µM | 38.9 µM | 29.5 µM | 36.8 µM | > 50 µM |  |
| COc1ccc(NC(=O)c2cc(-c3ccccc3)nc3ccc(Cl)cc23)c(C)c1 | > 50 µM | > 50 µM | 34.2 µM | 27.4 µM | > 50 µM | > 50 µM |  |
| COc1cc(NC(=O)c2cc(-c3ccccc3)nc3ccc(Cl)cc23)cc(OC)c1OC | > 50 µM | > 50 µM | 24.1 µM | 36.4 µM | > 50 µM | > 50 µM |  |
| COc1ccc(NC(=O)c2c3c(nc4ccc(Cl)cc24)-c2ccccc2CC3)cc1 | > 50 µM | > 50 µM | 37.6 µM | 39.5 µM | > 50 µM | > 50 µM |  |
| CCOc1ccc(NC(=O)c2cc(-c3ccccc3)nc3ccccc23)cc1 | > 50 µM | > 50 µM | 45.8 µM | 49.1 µM | > 50 µM | > 50 µM |  |
| COc1ccc(NC(=O)c2c3c(nc4ccc(Cl)cc24)-c2ccccc2CC3)c(C)c1 | > 50 µM | > 50 µM | 32.5 µM | > 50 µM | > 50 µM | > 50 µM |  |
| COc1cc2c(c(OC)c1OC)-c1ccc(OC)c(=O)cc1[C@@H](NC(C)=O)CC2 [COLCHICINE] | 0.06 µM | 0.02 µM | 0.05 µM | 0.01 µM | 0.5 µM | 0.09 µM |  |
| COc1ccc(NC(=O)c2cc(-c3ccc4c(c3)OCO4)nc3ccccc23)cc1 | > 50 µM | 46.3 µM | 43.4 µM | > 50 µM | > 50 µM | > 50 µM |  |
| COc1ccc(NC(=O)c2cc(-c3ccc(C(F)(F)F)cc3)nc3ccccc23)c(C)c1 | > 50 µM | > 50 µM | > 50 µM | 47.3 µM | > 50 µM | > 50 µM |  |
| COc1ccc(NC(=O)c2cc(-c3ccccc3)nc3ccc(Cl)cc23)cc1 | > 50 µM | > 50 µM | 20.3 µM | 24.8 µM | 40.2 µM | > 50 µM |  |
| O=C(NC(Cc1ccccc1)C(=O)OCc1ccccc1)c1cc(-c2ccccc2)nc2ccccc12 (configuration not stated) | > 50 µM | > 50 µM | > 50 µM | 36.1 µM | > 50 µM | > 50 µM |  |
| COc1ccc(NC(=O)c2cc(-c3cccc(C)c3)nc3ccccc23)cc1 | > 50 µM | 30.5 µM | 12.4 µM | 9.4 µM | 30.2 µM | > 50 µM |  |
| COc1ccc(NC(=O)c2cc(-c3ccccc3C)nc3ccccc23)cc1 | > 50 µM | > 50 µM | 36.7 µM | 31.4 µM | 42.8 µM | > 50 µM |  |
| CC[C@]1(O)C[C@@H]2CN(CCc3c([nH]c4ccccc34)[C@@](C(=O)OC)(c3cc4c(cc3OC)N(C)[C@H]3[C@@](O)(C(=O)OC)[C@H](OC(C)=O)[C@]5(CC)C=CCN6CC[C@]43[C@@H]65)C2)C1 |  |  |  |  |  |  | inhibition [19]: inactive |
| COc1ccc(NC(=O)c2cc(-c3ccccc3)nc3ccc(F)cc23)cc1 | > 50 µM | > 50 µM | 29.7 µM | 34.2 µM | > 50 µM | > 50 µM |  |

More lines, in order of falling IC50 [1], values ahead:

| IC50 [1] | IC50 [3] | IC50 [4] | IC50 [5] | IC50 [6] | SMILES | IC50 [2] | also measured |
| --- | --- | --- | --- | --- | --- | --- | --- |
| 46.2 µM | 37.9 µM | 36.6 µM | 25.8 µM | > 50 µM | Cc1cc(NC(=O)c2cc(-c3ccccc3)nc3ccccc23)no1 | > 50 µM |  |
| 46.1 µM | 30.1 µM | 12.3 µM | 11.9 µM | 20.4 µM | COc1ccc(NC(=O)c2cc(-c3ccc(C)cc3)nc3ccc(C)cc23)c(C)c1 | > 50 µM |  |
| 42.8 µM | > 50 µM | 36.3 µM | > 50 µM | 42.6 µM | COc1cc(OC)c(NC(=O)c2cc(-c3ccccc3)nc3ccccc23)cc1Cl | > 50 µM |  |
| 42.8 µM | > 50 µM | 36.8 µM | 48.3 µM | 45.8 µM | CSc1cccc(NC(=O)c2cc(-c3ccccc3)nc3ccccc23)c1 | > 50 µM |  |
| 41.6 µM | 45.7 µM | 42.2 µM | 43.6 µM | > 50 µM | COc1ccc(NC(=O)c2cc(-c3ccccc3C)nc3ccccc23)c(C)c1 | > 50 µM |  |
| 37.1 µM | 20.3 µM | 6.2 µM | 5.2 µM | 13.5 µM | COc1cc(NC(=O)c2cc(-c3ccc(C)cc3)nc3ccc(C)cc23)cc(OC)c1OC | 42.7 µM |  |
| 36.8 µM | 48.7 µM | 20.3 µM | 22.6 µM | 34.5 µM | COC(=O)c1sccc1NC(=O)c1cc(-c2ccccc2)nc2ccccc12 | 46.3 µM |  |
| 35.2 µM | 18.5 µM | 6.3 µM | 3.7 µM | 25.2 µM | COc1ccc(NC(=O)c2cc(-c3ccc(C)cc3)nc3ccccc23)cc1 | 47.8 µM |  |
| 34.7 µM | 20.5 µM | 12.8 µM | 4.9 µM | 32.5 µM | COc1ccc(NC(=O)c2cc(-c3ccccc3)nc3ccccc23)cc1 | 40.5 µM |  |
| 34.7 µM | 32.5 µM | 17.4 µM | 12.9 µM | 40.5 µM | COc1cccc(NC(=O)c2cc(-c3ccccc3)nc3ccccc23)c1 | 43.8 µM |  |
| 32.7 µM | 17.8 µM | 10.6 µM | 11.6 µM | 5.3 µM | COc1cc(NC(=O)c2cc(-c3cccc(C)c3)nc3ccccc23)cc(OC)c1OC | 42.3 µM |  |
| 32.4 µM | 29.7 µM | 8.3 µM | 10.4 µM | 16.4 µM | COc1ccc(NC(=O)c2cc(-c3ccc(C)cc3)nc3ccc(C)cc23)cc1 | > 50 µM |  |
| 32.1 µM | 23.6 µM | 15.3 µM | 14.6 µM | 10.4 µM | COc1ccc(NC(=O)c2cc(-c3cccc(C)c3)nc3ccccc23)c(C)c1 | > 50 µM |  |
| 20.1 µM | 23.7 µM | 8.4 µM | 7.8 µM | 16.4 µM | COc1ccc(NC(=O)c2cc(-c3ccccc3)nc3ccccc23)c(C)c1 | > 50 µM |  |
| 18.9 µM | 17.9 µM | 5.4 µM | 2.7 µM | 12.7 µM | COc1cc(NC(=O)c2cc(-c3ccccc3)nc3ccccc23)cc(OC)c1OC | 38.8 µM |  |
| 17.4 µM | 11.6 µM | 4.2 µM | 1.7 µM | 9.5 µM | COc1ccc(NC(=O)c2cc(-c3ccc(C)cc3)nc3ccccc23)c(C)c1 | 48.1 µM |  |
| 10.8 µM | 5.7 µM | 0.5 µM | 0.2 µM | 1.6 µM | COc1cc(NC(=O)c2cc(-c3ccc(C)cc3)nc3ccccc23)cc(OC)c1OC | 31.9 µM | Activity [7]: Active; Activity [8]: 87.2%; inhibition [9]: Active; Activity [10]: 45.26%; Activity [11]: 46.62%; Activity [12]: 39.47%; Activity [13]: 48.17%; Activity [14]: 0.04%; Activity [15]: 7.87%; Activity [16]: 5.21%; viability at 0.5 µM [17]: 15.2%; Activity [18]: 4.93%; inhibition [19]: Active; Activity [20]: Active |
